# Measurements from article PMC4604124, “In Vitro Characterization of the Pharmacological Properties of the Anti-Cancer Chelator, Bp4eT, and Its Phase I Metabolites” (PLoS ONE, 2015).
# “And” between values parts separate entries of the source, which are not always exact repeats. Equal values may be shown once.
# How the values were obtained:
# [1] = test system: cancer cells; design: method as in PMID 17602603, PMID 23074173, PMID 2758414, PMID 20036563; settings: cited from earlier work
# [2] = Ascorbate oxidation assay (redox activity of iron complexes); format: biochemical; settings: for %Fe 30min: ascorbate oxidation as % of the Fe control (Fe 100%): IBE 0.1, 30 min;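 on %Fe 30min (ascorbate oxidation, Fe 100%), průměr: IBE 3 means excess free chelator over iron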;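 on %Fe 30min (ascorbate oxidation, Fe 100%): IBE 3 means excess free chelator over iron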;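 on %Fe 30min: ascorbate oxidation as % of the Fe control (Fe 100%): IBE 0.1 means iron-binding equivalents with iron in excess over chelator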;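 on Change of absorbance, odečet 0 (time 0 subtracted), čas 10, průměr: IBE 3 means excess free chelator over 10 µM FeCl3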;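 on Change of absorbance, odečet 0 (time 0 subtracted), čas 10: IBE 3 means excess free chelator over 10 µM FeCl3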
# Protocol: The ascorbate oxidation assay was used to assess the redox activity of the iron complexes of the chelators using an established protocol. In brief, 100 μM ascorbic acid was prepared immediately prior to the experiment and incubated either alone or in the presence of 10 μM FeCl3 in a 50-fold molar excess (500 μM) of citrate and the chelators. Chelators were assayed at iron-binding equivalents (IBE) of 0.1 (excess of iron), 1 (fully coordinated iron—chelator complexes) and 3 (excess of free chelator). […] The decrease of absorbance between the two time points was calculated and expressed as a percentage of control without the chelator.
# [3] = test system: labile iron pool of MCF-7 cells; test: Calcein-AM assay, access to the labile iron pool; format: cell-based, human; settings: 10 μM, MCF-7, mean of 6 experiments
# Protocol: These experiments were performed according to Glickstein et al. with slight modifications. The MCF-7 cells were seeded in 96-well plates (10,000 cells/well) and allowed to adhere for 24 h/37°C. Cells were loaded with iron using the cellular iron donor, ferric ammonium citrate (530 μg/mL), 24 h prior to the experiment, and then washed. To prevent potential interference, especially with regard to various trace elements, the medium was replaced with ADS buffer (prepared using Millipore water supplemented with 116 mM NaCl, 5.3 mM KCl, 1 mM CaCl2, 1.2 mM MgSO4, 1.13 mM NaH2PO4, 5 mM D-glucose, and 20 mM HEPES, pH 7.4). Cells were then loaded with 2 μM of the cell-permeable calcein green acetoxymethyl ester (calcein-AM; Molecular Probes, Oregon, USA) for 30 min/37°C and washed. Cellular esterases cleave the acetoxymethyl groups to form the cell membrane-impermeable compound, calcein green. The fluorescence of calcein green is quenched upon binding iron. The intracellular fluorescence (λex = 488 nm; λem = 530 nm) of calcein green was then followed as a function of time (10 min after the addition of 10 μM Bp4eT or its metabolites) at 37°C using the Tecan Infinite 200M plate reader. The iron chelation efficacy of the metabolites in cells was expressed as a percentage of the efficacy of the parent chelator, Bp4eT (100%).
# [4] = test system: 3T3 mouse embryo fibroblasts; test: MTT cytotoxicity assay, 3T3 cells; format: cell-based; settings: Mus musculus, Fibroblast, 72 h, 3T3, 72 h; read-out: IC50
# Protocol: (§1) For cytotoxicity experiments, cancer cells were seeded at a density of 5,000 (MCF-7), 10,000 (HL-60) or 2,000 cells/well (HCT116 and A549) in 96-well plates (TPP) for 24 h/37°C prior to the addition of examined agents. The non-cancerous cells, 3T3 and H9c2 cells, were cultured for 24 h/37°C in 96-well plates at a density of 10,000 cells/well, the medium was then changed to serum- and pyruvate-free DMEM (Sigma-Aldrich) and incubated with the cells for another 24 h/37°C. The cytotoxic effects of Bp4eT and its metabolites were studied at different concentrations after a 72 h/37°C incubation. In order to aid the dissolution of the lipophilic ligands, 0.1% dimethyl sulfoxide (v/v) (DMSO; Sigma-Aldrich) was present in the culture medium of all groups. At this concentration, DMSO had no effect on cellular proliferation or viability.
# (§2) The viability of cells were determined using an MTT assay (Sigma-Aldrich) according to previously established methods. The optical density of soluble MTT was measured at λ = 570 nm, subtracting the λ = 690 nm background using a Tecan Infinite 200M plate reader (Tecan Group, Männedorf, Switzerland). The viability or proliferation of experimental groups was expressed as a percentage of the untreated controls (100%).
# (§3) SigmaStat for Windows 3.5 (Systat Software, San Jose, CA, USA) statistical software package was utilized to analyze results. The data are expressed as the mean ± SD of a given number of experiments. Statistical significance was determined using a one-way ANOVA with a Bonferroni post-hoc test or Student’s t-test. The results were considered to be statistically significant when p < 0.05. The IC50 values were calculated using CalcuSyn 2.0 software (Biosoft, Cambridge, UK). Cell cycle analysis was evaluated using MultiCycle AV Software (Phoenix Flow Systems, San Diego, CA, USA).
# [5] = test system: MCF-7 cells; test: Cellular 59Fe uptake from 59Fe2-transferrin; format: cell-based, human; settings: 25 μM, 3 h/37°C, MCF-7, 0.75 μM 59Fe2-Tf
# Text: Human transferrin (Sigma) was labeled with ^56Fe or ^59Fe (PerkinElmer, Massachusetts, USA) to produce ^56Fe2-transferrin or ^59Fe2-transferrin (^59Fe2-Tf), respectively, with a final specific activity of 500 pCi/pmol Fe, as previously described. Unbound ^59Fe was removed by exhaustive vacuum dialysis against a large excess of 0.15 M NaCl buffered to pH 7.4 with 1.4% NaHCO3 by standard methods.
# The ability of the chelators to prevent cellular ^59Fe uptake from ^59Fe2-transferrin was examined using standard techniques. In brief, confluent MCF-7 cells in 6-well plates were incubated with 0.75 μM ^59Fe2-Tf for 3 h/37°C in the presence of Bp4eT or its metabolites (25 μM). The cells were then washed four times with ice-cold PBS and the level of internalized ^59Fe was determined by incubating the cell monolayer for 30 min/4°C with the general protease, Pronase (1 mg/mL; Sigma-Aldrich). The cells were then removed from the monolayer with a plastic spatula on ice and centrifuged for 1 min/12,000 x g/4°C. The supernatant represents membrane-bound, Pronase-sensitive ^59Fe that was released by the protease, while the Pronase-insensitive fraction represents internalized ^59Fe. The amount of internalized ^59Fe was expressed as a percentage of ^59Fe internalized by control (untreated) cells.
# [6] = test system: H9c2 cardiomyoblasts; test: MTT cytotoxicity assay, H9c2 cells; format: cell-based, rat; settings: H9c2, 72 h/37°C, MTT; mean ± SD, n ≥ 4; read-out: IC50
# Protocol: as §1, §2, §3
# [7] = design: method as in PMID 24254882; settings: E and Z isomers, after Bp4eT; cited from earlier work
# [8] = test system: cancer cells (HL-60, MCF-7, HCT116, A549) and non-cancerous cells (H9c2, 3T3); test: MTT cytotoxicity assay, summary over the cell line panel; format: cell-based; settings: HL-60, MCF-7, HCT116, A549; 72 h; read-out: IC50, range over cancer cells
# Protocol: as §1, §2, §3
# [9] = sheet IBE 1, time 10, replicates
# [10] = sheet IBE 1, time 20, replicates
# [11] = sheet IBE 1, time 30, replicates
compound,measurement,setting,value
"CC(=O)N(O)CCCCCNC(=O)CCC(=O)N(O)CCCCCNC(=O)CCC(=O)N(O)CCCCCN [DFO, deferoxamine, reference compound]",IC50 values against cancer cells,[1],μM range
same,%Fe 30min: ascorbate oxidation as % of the Fe control (Fe 100%),[2]; mean (průměr),95.6%
same,%Fe 30min: ascorbate oxidation as % of the Fe control (Fe 100%),[2]; single wells,92.32% and 94.84% and 89.62% and 108.6% and 104.8% and 93.48%
same,Change of absorbance after subtraction of time 0 (odečet 0),"[2]; IBE 0.1, time 10, mean (průměr)",-0.0289
same,Change of absorbance after subtraction of time 0 (odečet 0),"[2]; IBE 0.1, time 20, mean (průměr)",-0.06128
same,Change of absorbance after subtraction of time 0 (odečet 0),"[2]; IBE 0.1, time 30, mean (průměr)",-0.09056
same,"Absorbance (ascorbate, λ = 265 nm)","[2]; IBE 0.1, čas 0 (time 0), mean (průměr)",0.8374
same,"Absorbance (ascorbate, λ = 265 nm)","[2]; IBE 0.1, čas 0 (time 0), single wells",0.8482 and 0.8386 and 0.8297 and 0.8393 and 0.8347 and 0.8423
same,"Absorbance (ascorbate, λ = 265 nm)","[2]; IBE 0.1, čas 10 (time 10), mean (průměr)",0.8085
same,"Absorbance (ascorbate, λ = 265 nm)","[2]; IBE 0.1, čas 10 (time 10), single wells",0.8014 and 0.8085 and 0.8061 and 0.8115 and 0.8174 and 0.8155
same,"Absorbance (ascorbate, λ = 265 nm)","[2]; IBE 0.1, čas 20 (time 20), mean (průměr)",0.7761
same,"Absorbance (ascorbate, λ = 265 nm)","[2]; IBE 0.1, čas 20 (time 20), single wells",0.7691 and 0.7765 and 0.7756 and 0.7789 and 0.7837 and 0.7797
same,"Absorbance (ascorbate, λ = 265 nm)","[2]; IBE 0.1, čas 30 (time 30), mean (průměr)",0.7468
same,"Absorbance (ascorbate, λ = 265 nm)","[2]; IBE 0.1, čas 30 (time 30), single wells",0.7397 and 0.7469 and 0.7473 and 0.7447 and 0.754 and 0.7546
same,"Ascorbate oxidation, % of the control",[2]; IBE 1,significant (p < 0.001) decrease
same,"Ascorbate oxidation, % of the control",[2]; IBE 3,significant (p < 0.001) decrease
same,"%Fe 30min (ascorbate oxidation, Fe = 100%), průměr (mean)","[2]; sheet IBE 1, 30min, Fe 100%, mean",34.33%
same,"%Fe 30min (ascorbate oxidation, Fe = 100%), single replicates","[2]; sheet IBE 1, 30min, Fe 100%, replicates",31.7% and 34.66% and 23.38% and 46.3% and 44.12% and 39.04%
same,"raw reading at čas 0 (time 0), průměr (mean)","[2]; sheet IBE 1, time 0, mean of 9 readings",0.8386
same,"raw reading at čas 0 (time 0), single replicates","[2]; sheet IBE 1, time 0, replicates of 2014-03-24 (two runs) and 2014-03-25",0.8558 and 0.8596 and 0.828 and 0.8361 and 0.827 and 0.8501
same,"odečet 0 (reading minus time 0 reading) at čas 10, průměr (mean)","[2]; sheet IBE 1, time 10, mean",-0.01
same,"raw reading at čas 10 (time 10), průměr (mean)","[2]; sheet IBE 1, time 10, mean of 9 readings",0.8286
same,"odečet 0 (reading minus time 0 reading) at čas 10, single replicates",[2]; [9],-0.00635 and -0.01167 and -0.00323 and -0.01849 and -0.01895 and -0.01001
same,"raw reading at čas 10 (time 10), single replicates",[2]; [9],0.8216 and 0.8244 and 0.8238 and 0.8316 and 0.8369 and 0.8496
same,"odečet 0 (reading minus time 0 reading) at čas 20, průměr (mean)","[2]; sheet IBE 1, time 20, mean",-0.0179
same,"raw reading at čas 20 (time 20), průměr (mean)","[2]; sheet IBE 1, time 20, mean of 9 readings",0.8207
same,"odečet 0 (reading minus time 0 reading) at čas 20, single replicates",[2]; [10],-0.01539 and -0.01649 and -0.00893 and -0.03069 and -0.02809 and -0.02068
same,"raw reading at čas 20 (time 20), single replicates",[2]; [10],0.8126 and 0.8196 and 0.8181 and 0.8194 and 0.8278 and 0.8389
same,"odečet 0 (reading minus time 0 reading) at čas 30, průměr (mean)","[2]; sheet IBE 1, time 30, mean",-0.0308
same,"raw reading at čas 30 (time 30), průměr (mean)","[2]; sheet IBE 1, time 30, mean of 9 readings",0.8078
same,"odečet 0 (reading minus time 0 reading) at čas 30, single replicates",[2]; [11],-0.02739 and -0.02994 and -0.0202 and -0.04369 and -0.04163 and -0.03684
same,"raw reading at čas 30 (time 30), single replicates",[2]; [11],0.8006 and 0.8061 and 0.8068 and 0.8064 and 0.8142 and 0.8227
same,"%Fe 30min (ascorbate oxidation, Fe 100%), průměr","[2]; sheet IBE 3, 30min, Fe alone = 100%, mean (průměr) of the 9 replicates",14.03%
same,"%Fe 30min (ascorbate oxidation, Fe 100%)","[2]; sheet IBE 3, 30min, Fe alone = 100%, single replicates",16.83% and 16.2% and 10.25% and 18.5% and 12.77% and 8.453%
same,"Change of absorbance, odečet 0 (time 0 subtracted), čas 10, průměr","[2]; sheet IBE 3, time 10 minus time 0, mean (průměr)",-0.00229
same,"Change of absorbance, odečet 0 (time 0 subtracted), čas 10","[2]; sheet IBE 3, time 10 minus time 0, single replicates",-0.00147 and -0.00159 and -0.00408 and -0.00649 and -0.00197 and 0.00214
same,"Change of absorbance, odečet 0 (time 0 subtracted), čas 20, průměr","[2]; sheet IBE 3, time 20 minus time 0, mean (průměr)",-0.00588
same,"Change of absorbance, odečet 0 (time 0 subtracted), čas 20","[2]; sheet IBE 3, time 20 minus time 0, single replicates",-0.00984 and -0.00475 and -0.00555 and -0.0054 and -0.00607 and -0.00117
same,"Change of absorbance, odečet 0 (time 0 subtracted), čas 30, průměr","[2]; sheet IBE 3, time 30 minus time 0, mean (průměr)",-0.01297
same,"Change of absorbance, odečet 0 (time 0 subtracted), čas 30","[2]; sheet IBE 3, time 30 minus time 0, single replicates",-0.01562 and -0.01504 and -0.00952 and -0.01694 and -0.01169 and -0.00774
"CCNC(=O)NN=C(c1ccccc1)c1ccccn1 [Bp4eS, 2-benzoylpyridine 4-ethylsemicarbazone]",Chelation efficacy: fluorescence of free calcein at t = 600 s as percentage of Bp4eT,[3],≤ 1.0%
same,IC50,[4],> 1000 µM
same,"Internalized 59Fe uptake, % of the control",[5],comparable to the untreated control
same,IC50,[6],343 µM
same,Concentration in plasma,[7],< 20 nM
same,IC50,[8],46 to 536 µM
O=C(O)c1ccc(-n2nc(-c3ccccc3O)nc2-c2ccccc2O)cc1 [deferasirox],IC50 values against cancer cells,[1],μM range
